Assays:
Conditions in all cases: 1 µM; inhibitor
ACVR2A = ACVR2A (Homo sapiens, UniProt P27037)
AKT1 = AKT1 (Homo sapiens, UniProt P31749)
AKT3 = AKT3 (Homo sapiens, UniProt Q9Y243)
AurB = AurB (Homo sapiens, UniProt Q96GD4)
CAMK2B = CAMK2B (Homo sapiens, UniProt Q13554)
CDK13 = CDK13 (Homo sapiens, UniProt Q14004)
CDK4 = CDK4 (Homo sapiens, UniProt P11802)
CDK8 = CDK8 (Homo sapiens, UniProt P49336)
CHK2 = CHK2 (Homo sapiens, UniProt O96017)
CK1e = CK1e (Homo sapiens, UniProt P49674)
CK2a1 = CK2a1 (Homo sapiens, UniProt P68400)
CLK3 = CLK3 (Homo sapiens, UniProt P49761)
CLK4 = CLK4 (Homo sapiens, UniProt Q9HAZ1)
CSF1R = CSF1R (Homo sapiens, UniProt P07333)
DNAPK = DNAPK (Homo sapiens, UniProt P78527)
DYRK1A = DYRK1A (Homo sapiens, UniProt Q13627)
EPHA8 = EPHA8 (Homo sapiens, UniProt P29322)
ERK7 = ERK7 (Homo sapiens, UniProt Q8TD08)
FER = FER (Homo sapiens, UniProt P16591)
HIPK3 = HIPK3 (Homo sapiens, UniProt Q9H422)
IKKa = IKKa (Homo sapiens, UniProt O15111)
JAK1 = JAK1 (Homo sapiens, UniProt P23458)
LIMK2 = LIMK2 (Homo sapiens, UniProt P53671)
MAP3K9 = MAP3K9 (Homo sapiens, UniProt P80192)
MKK4 = MKK4 (Homo sapiens, UniProt P45985)
RIPK5 = RIPK5 (Homo sapiens, UniProt Q6XUX3)
RPS6KB1 = RPS6KB1 (Homo sapiens, UniProt P23443)
RPS6KB2 = RPS6KB2 (Homo sapiens, UniProt Q9UBS0)
SIK3 = SIK3 (Homo sapiens, UniProt Q9Y2K2)
SRPK1 = SRPK1 (Homo sapiens, UniProt Q96SB4)
TSSK1 = TSSK1 (Homo sapiens, UniProt Q9BXA7)

Sequence of LIMK2 (P53671 whole entry): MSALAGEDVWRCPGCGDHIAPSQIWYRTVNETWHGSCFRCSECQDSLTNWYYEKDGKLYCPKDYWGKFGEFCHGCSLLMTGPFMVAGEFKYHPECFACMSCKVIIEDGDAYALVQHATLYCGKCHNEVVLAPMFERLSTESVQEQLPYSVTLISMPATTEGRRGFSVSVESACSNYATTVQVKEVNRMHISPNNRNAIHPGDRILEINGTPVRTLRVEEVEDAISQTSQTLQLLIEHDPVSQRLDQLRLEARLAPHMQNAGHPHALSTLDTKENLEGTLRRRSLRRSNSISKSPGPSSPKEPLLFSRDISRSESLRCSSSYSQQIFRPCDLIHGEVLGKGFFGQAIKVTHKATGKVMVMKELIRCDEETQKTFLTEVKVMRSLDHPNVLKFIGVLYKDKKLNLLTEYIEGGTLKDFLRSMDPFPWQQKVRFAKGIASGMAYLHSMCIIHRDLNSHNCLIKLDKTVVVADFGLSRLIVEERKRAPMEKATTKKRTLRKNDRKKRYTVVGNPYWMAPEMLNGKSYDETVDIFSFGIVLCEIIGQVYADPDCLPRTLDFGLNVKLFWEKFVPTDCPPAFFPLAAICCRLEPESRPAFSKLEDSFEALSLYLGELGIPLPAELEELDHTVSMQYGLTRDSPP
Sequence of HIPK3 (Q9H422 whole entry): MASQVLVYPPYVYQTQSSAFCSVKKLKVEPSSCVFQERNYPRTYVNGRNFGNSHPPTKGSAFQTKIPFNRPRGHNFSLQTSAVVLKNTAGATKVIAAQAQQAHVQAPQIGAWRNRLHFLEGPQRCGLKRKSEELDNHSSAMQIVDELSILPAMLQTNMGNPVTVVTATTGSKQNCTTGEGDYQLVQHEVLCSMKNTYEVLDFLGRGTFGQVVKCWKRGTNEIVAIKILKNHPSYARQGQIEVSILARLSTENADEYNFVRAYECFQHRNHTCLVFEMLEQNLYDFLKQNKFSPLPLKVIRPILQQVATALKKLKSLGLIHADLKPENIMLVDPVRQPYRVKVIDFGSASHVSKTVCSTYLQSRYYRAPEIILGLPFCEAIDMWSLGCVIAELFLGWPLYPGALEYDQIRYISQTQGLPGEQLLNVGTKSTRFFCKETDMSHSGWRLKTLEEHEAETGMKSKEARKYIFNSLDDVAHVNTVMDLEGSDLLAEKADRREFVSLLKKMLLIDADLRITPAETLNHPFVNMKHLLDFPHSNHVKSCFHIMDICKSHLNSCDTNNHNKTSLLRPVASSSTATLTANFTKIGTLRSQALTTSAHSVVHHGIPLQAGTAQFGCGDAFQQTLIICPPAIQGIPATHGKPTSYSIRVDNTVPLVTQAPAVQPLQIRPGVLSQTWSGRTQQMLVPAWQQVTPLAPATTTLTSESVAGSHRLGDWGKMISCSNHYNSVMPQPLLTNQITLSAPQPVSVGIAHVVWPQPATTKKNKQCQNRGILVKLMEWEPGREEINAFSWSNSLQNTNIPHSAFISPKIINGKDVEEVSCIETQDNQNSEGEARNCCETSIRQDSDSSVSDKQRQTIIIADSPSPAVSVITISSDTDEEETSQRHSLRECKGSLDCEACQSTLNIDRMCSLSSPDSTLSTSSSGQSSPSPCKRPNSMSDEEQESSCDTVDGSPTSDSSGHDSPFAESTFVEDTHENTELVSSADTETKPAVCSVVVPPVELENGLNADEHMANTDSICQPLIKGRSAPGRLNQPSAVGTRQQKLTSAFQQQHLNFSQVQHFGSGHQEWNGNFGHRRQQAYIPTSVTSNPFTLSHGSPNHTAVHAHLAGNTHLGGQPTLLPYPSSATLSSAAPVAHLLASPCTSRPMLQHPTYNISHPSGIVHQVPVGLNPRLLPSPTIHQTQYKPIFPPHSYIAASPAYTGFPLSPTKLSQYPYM
Sequence of RIPK5 (Q6XUX3 whole entry): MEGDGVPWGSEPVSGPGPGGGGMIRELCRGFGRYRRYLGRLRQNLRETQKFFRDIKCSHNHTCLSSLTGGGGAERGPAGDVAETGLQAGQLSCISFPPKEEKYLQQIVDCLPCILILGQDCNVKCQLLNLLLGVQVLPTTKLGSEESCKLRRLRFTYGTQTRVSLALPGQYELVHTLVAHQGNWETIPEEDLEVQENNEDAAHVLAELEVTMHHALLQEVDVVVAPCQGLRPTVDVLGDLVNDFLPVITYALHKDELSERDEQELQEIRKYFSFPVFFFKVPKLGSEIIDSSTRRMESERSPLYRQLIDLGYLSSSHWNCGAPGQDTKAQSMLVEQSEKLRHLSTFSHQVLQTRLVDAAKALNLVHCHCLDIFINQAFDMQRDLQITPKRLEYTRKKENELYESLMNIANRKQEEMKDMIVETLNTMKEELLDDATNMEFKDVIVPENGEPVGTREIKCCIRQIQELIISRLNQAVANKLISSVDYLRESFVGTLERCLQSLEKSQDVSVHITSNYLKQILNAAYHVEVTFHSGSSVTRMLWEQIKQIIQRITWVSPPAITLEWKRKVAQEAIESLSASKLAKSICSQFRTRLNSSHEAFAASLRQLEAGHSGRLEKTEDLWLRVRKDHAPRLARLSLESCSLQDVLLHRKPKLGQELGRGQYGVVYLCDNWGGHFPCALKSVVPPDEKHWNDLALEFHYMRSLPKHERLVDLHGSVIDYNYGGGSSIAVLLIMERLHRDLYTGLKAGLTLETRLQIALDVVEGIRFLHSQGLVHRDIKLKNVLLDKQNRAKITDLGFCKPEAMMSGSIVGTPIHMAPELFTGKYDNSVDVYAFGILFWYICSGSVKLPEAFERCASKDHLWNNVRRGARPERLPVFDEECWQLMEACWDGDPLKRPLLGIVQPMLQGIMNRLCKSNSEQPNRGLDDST
Sequence of SIK3 (Q9Y2K2 whole entry): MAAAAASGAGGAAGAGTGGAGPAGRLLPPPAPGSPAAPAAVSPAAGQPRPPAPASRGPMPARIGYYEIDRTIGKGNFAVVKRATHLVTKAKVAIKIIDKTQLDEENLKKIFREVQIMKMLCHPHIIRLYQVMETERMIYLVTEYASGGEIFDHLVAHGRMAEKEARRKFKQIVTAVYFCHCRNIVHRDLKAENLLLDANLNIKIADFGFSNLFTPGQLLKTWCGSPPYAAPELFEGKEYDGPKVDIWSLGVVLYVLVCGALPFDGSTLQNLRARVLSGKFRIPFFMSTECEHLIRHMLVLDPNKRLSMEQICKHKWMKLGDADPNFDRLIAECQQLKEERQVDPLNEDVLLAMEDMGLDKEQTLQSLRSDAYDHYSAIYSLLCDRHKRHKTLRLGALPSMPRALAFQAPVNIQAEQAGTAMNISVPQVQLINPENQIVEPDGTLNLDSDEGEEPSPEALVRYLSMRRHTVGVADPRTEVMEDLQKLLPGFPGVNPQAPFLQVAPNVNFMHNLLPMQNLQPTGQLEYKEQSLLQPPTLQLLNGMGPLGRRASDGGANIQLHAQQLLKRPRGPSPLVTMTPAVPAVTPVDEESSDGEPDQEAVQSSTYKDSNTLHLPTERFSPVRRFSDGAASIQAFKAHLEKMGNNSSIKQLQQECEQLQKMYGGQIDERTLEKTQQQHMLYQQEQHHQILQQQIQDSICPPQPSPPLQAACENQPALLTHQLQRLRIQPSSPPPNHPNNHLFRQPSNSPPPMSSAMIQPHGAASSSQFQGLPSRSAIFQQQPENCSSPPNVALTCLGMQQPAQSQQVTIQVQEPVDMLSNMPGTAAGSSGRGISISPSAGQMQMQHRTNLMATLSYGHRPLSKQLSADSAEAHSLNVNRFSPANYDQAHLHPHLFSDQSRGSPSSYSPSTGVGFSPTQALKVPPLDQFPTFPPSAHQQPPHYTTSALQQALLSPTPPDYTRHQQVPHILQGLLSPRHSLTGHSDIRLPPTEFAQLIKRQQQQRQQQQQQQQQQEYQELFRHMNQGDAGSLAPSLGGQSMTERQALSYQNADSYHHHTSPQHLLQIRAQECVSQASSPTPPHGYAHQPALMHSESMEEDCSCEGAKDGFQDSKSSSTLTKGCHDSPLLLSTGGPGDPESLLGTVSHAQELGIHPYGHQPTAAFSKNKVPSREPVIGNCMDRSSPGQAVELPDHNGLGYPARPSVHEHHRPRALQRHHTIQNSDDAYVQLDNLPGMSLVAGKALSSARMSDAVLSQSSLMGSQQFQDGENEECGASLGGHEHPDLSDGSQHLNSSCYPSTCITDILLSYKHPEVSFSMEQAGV
Sequence of CDK8 (P49336 whole entry): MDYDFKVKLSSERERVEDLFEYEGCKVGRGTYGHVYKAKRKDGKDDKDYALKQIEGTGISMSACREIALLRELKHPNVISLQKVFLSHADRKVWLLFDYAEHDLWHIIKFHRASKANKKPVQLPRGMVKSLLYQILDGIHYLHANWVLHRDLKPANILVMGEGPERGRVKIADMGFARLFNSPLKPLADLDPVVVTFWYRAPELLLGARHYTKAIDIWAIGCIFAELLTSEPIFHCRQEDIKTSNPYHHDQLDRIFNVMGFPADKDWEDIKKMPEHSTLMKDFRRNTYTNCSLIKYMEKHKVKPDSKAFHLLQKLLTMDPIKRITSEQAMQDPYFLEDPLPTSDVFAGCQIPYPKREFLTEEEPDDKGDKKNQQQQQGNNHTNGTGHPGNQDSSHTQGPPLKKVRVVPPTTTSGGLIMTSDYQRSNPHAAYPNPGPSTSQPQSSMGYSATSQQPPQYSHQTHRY
Sequence of CDK4 (P11802 whole entry): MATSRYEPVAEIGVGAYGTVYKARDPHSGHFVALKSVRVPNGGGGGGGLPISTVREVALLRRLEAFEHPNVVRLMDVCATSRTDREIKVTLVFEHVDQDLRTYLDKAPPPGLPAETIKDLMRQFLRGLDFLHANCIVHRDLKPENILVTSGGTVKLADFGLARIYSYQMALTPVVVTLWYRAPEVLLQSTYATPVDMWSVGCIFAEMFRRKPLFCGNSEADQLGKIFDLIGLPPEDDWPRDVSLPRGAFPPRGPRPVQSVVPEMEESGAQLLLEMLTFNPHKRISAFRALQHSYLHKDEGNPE

O=C1NCCCCCNc2nc(c3ccccc3n2)Nc2cc1[nH]n2 [21c, (Z)-3^1H-2,5,11-triaza-1(4,2)-quinazolina-3(3,5)-pyrazolacycloundecaphan-4-one]
21c Remaining activity, percent of control [%] (ACVR2A): 95.3% | 21c Remaining activity, percent of control [%] (AKT1): 92.1% | 21c Remaining activity, percent of control [%] (AKT3): 102.5% | 21c Remaining activity, percent of control [%] (AurB): 83.9% | 21c Remaining activity, percent of control [%] (CAMK2B): 88.8% | 21c Remaining activity, percent of control [%] (CDK13): 101.2% | 21c Remaining activity, percent of control [%] (CDK4): 84.5% | 21c Remaining activity, percent of control [%] (CDK8): 88.5% | 21c Remaining activity, percent of control [%] (CHK2): 84.0% | 21c Remaining activity, percent of control [%] (CK1e): 103.1% | 21c Remaining activity, percent of control [%] (CK2a1): 95.5% | 21c Remaining activity, percent of control [%] (CLK3): 88.6% | 21c Remaining activity, percent of control [%] (CLK4): 76.4% | 21c Remaining activity, percent of control [%] (CSF1R): 90.9% | 21c Remaining activity, percent of control [%] (DNAPK): 100.7% | 21c Remaining activity, percent of control [%] (DYRK1A): 82.2% | 21c Remaining activity, percent of control [%] (EPHA8): 112.4% | 21c Remaining activity, percent of control [%] (ERK7): 90.2% | 21c Remaining activity, percent of control [%] (FER): 101.7% | 21c Remaining activity, percent of control [%] (HIPK3): 90.8% | 21c Remaining activity, percent of control [%] (IKKa): 80.7% | 21c Remaining activity, percent of control [%] (JAK1): 88.0% | 21c Remaining activity, percent of control [%] (LIMK2): 38.2% | 21c Remaining activity, percent of control [%] (MAP3K9): 95.7% | 21c Remaining activity, percent of control [%] (MKK4): 127.3% | 21c Remaining activity, percent of control [%] (RIPK5): 122.0% | 21c Remaining activity, percent of control [%] (RPS6KB1): 86.2% | 21c Remaining activity, percent of control [%] (RPS6KB2): 99.0% | 21c Remaining activity, percent of control [%] (SIK3): 72.1% | 21c Remaining activity, percent of control [%] (SRPK1): 101.4% | 21c Remaining activity, percent of control [%] (TSSK1): 95.8%

Reference: paper doi:10.1101/2023.10.20.563248v1 (biorxiv, 2023)
